Data from patent publication US4595695A, “1'-ethoxycarbonyloxyethyl ester of valproic acid, its preparation and pharmaceutical compositions containing it” (Teva Pharmaceutical Industries Ltd., priority 1983, dated 1986).
Read-outs that look alike come from different tables or passages of the source.

Assays:
[1] = oral; cited from earlier work
[2] = physiological pH; cited from earlier work
[3] = combination therapy with other anti-epileptic drugs; cited from earlier work
[4] = pharmacokinetic parameters of VPA in dogs after oral administration of the ester or DEPAKINE;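 as to all read-outs here: comparator arm received VPA orally as the free acid rather than as the ester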; assay type: in vivo, dog; conditions: for ka, absorption rate constant / CL/F / AUC / Vd/F / k el / half-life / Tmax: VPA, 400 mg; for CL/F / AUC / Vd/F / k el / half-life / Tmax: dog, in vivo, po; for AUC: read-out: AUC, area under the plasma conc. vs. time curve (row head is drawing 3) (converted); for Vd/F: read-out: V; for k el: read-out: ke, elimination rate constant (converted); for half-life: read-out: t1/2 elimin. (converted); for Tmax: read-out: t max obs, observed time to reach peak plasma concentration (converted)
rats = assay: toxicity after oral administration to rats; assay type: in vivo, rat; conditions: 20 and 100 mg/kg
[5] = stability of the ester in 0.01 N HCl; assay type: physicochemical; conditions: room temperature, first order kinetics, read-out: stability half-life time in 0.01 N HCl (converted)
Method: (§1) The ester was quite stable at -20° C. or after HCl was added to the plasma mixture. […] All these half-life time calculations were done by assuming a first order linear kinetics of hydrolysis of the ester to valproic acid.

[6] = expected VPA plasma concentration after single oral administration of the ester to man; assay type: in vivo
Text: Based on the prolonged absorption of VPA after administration of the ester, this new prodrug might be administered to epileptic patients twice or even once a day.

[7] = stability of the ester in plasma in vitro; assay type: in vitro ADME
Method: as §1

[8] = VPA plasma levels after oral administration of the ester to five dogs; assay type: in vivo, dog; parameters: key: --: Undetectable concentration of VPA
Method: Concentration of VPA after oral administration of the ester of this invention to five dogs are presented in the following Table I. Each plasma sample was assayed three times and the results presented in Table I are mean ±S.D. of these analyses.

animals = conditions: in vivo; cited from earlier work

What does the source list for `CCCC(CCC)C(N)=O` [VPD, Valpromide-dipropylacetamide]?
absorption compared with VPA [1]: slower absorption than VPA; bioavailability [1]: low bioavailability

What does the source list for `CCCC(CCC)C(=O)O` [VPA, di-n-propylacetic acid]?
ionization of carboxylic group [2]: significantly ionized; half life time in combination therapy [3]: even shorter than in a single therapy

Which results are given for `CCCC(CCC)C(=O)OC(C)OC(=O)OCC` (stereo not drawn) [1'-ethoxycarbonyloxyethyl ester, 1'-ethoxycarbonyloxyethyl ester of valproic acid]?
ka, absorption rate constant ([4]; dog 1, oral): 0.015 min⁻¹; ka, absorption rate constant ([4]; dog 2, oral): 0.02 min⁻¹; ka, absorption rate constant ([4]; dog 3, oral): 0.02 min⁻¹; ka, absorption rate constant ([4]; dog 4, oral): 0.01 min⁻¹; ka, absorption rate constant ([4]; dog 5, oral): 0.04 min⁻¹; CL/F ([4]; dog 1): 66.7 mL/min; AUC ([4]; dog 1, oral): 76800 ng·h/mL; Vd/F ([4]; dog 1, oral): 12.1 L; k el ([4]; dog 1, oral): 9.17e-05 s⁻¹; half-life ([4]; dog 1, oral): 2.1 h; Tmax ([4]; dog 1, oral): 2 h; CL/F ([4]; dog 2): 34.8 mL/min; AUC ([4]; dog 2, oral): 167000 ng·h/mL; Vd/F ([4]; dog 2, oral): 5.35 L; k el ([4]; dog 2, oral): 0.000108 s⁻¹; half-life ([4]; dog 2, oral): 1.78 h; Tmax ([4]; dog 2, oral): 1.4 h; CL/F ([4]; dog 3): 61.5 mL/min; AUC ([4]; dog 3, oral): 67700 ng·h/mL; Vd/F ([4]; dog 3, oral): 5.08 L; k el ([4]; dog 3, oral): 0.00202 s⁻¹; half-life ([4]; dog 3, oral): 0.95 h; Tmax ([4]; dog 3, oral): 1.17 h; CL/F ([4]; dog 4): 56.5 mL/min; AUC ([4]; dog 4, oral): 81200 ng·h/mL; Vd/F ([4]; dog 4, oral): 8.69 L; k el ([4]; dog 4, oral): 0.000108 s⁻¹; half-life ([4]; dog 4, oral): 1.78 h; Tmax ([4]; dog 4, oral): 2.5 h; CL/F ([4]; dog 5): 42.7 mL/min; AUC ([4]; dog 5, oral): 142000 ng·h/mL; Vd/F ([4]; dog 5, oral): 7.24 L; Tmax ([4]; dog 5, oral): 1.2 h; VPA plasma levels between 30 to 240 minutes ([4]; dogs, after ester administration): More or less constant plasma levels; difference between the maximal and minimal steady state levels ([4]; dogs, between 30 to 240 minutes): less than a two-fold difference; distribution and elimination parameters of VPA compared between the two drug products ([4]; dogs, exception: V in dog number 1): not significantly different; absorption rate of VPA compared with free acid ([4]; dogs, oral, ester versus free acid): two to five times slower; toxicity (rats): did not show any toxicity; half-life [5]: 32.4 h; expected VPA concentration profile in man [6]: prolonged pseudo steady state concentration; stability at -20° C. or after HCl was added to the plasma mixture ([7]; -20° C. or HCl added to plasma mixture): quite stable; transformation to valproic acid in plasma ([7]; plasma in vitro, room temperature): transformed to valproic acid; half-life ([7]; plasma in vitro, room temperature, first order kinetics): 2.23 h; VPA plasma levels ([8]; dog 1, 15 min): --; VPA plasma levels ([8]; dog 1, 660 min): --; VPA plasma levels ([8]; dog 1, 720 min): --; VPA plasma levels ([8]; dog 1, 780 min): --; VPA plasma levels ([8]; dog 1, 840 min): --; VPA plasma levels ([8]; dog 1, 900 min): --; VPA plasma levels ([8]; dog 2, 660 min): --; VPA plasma levels ([8]; dog 2, 840 min): --; VPA plasma levels ([8]; dog 2, 900 min): --; VPA plasma levels ([8]; dog 3, 720 min): --; VPA plasma levels ([8]; dog 3, 780 min): --; VPA plasma levels ([8]; dog 3, 840 min): --; VPA plasma levels ([8]; dog 3, 900 min): --; VPA plasma levels ([8]; dog 4, 45 min): --; VPA plasma levels ([8]; dog 4, 60 min): --; VPA plasma levels ([8]; dog 4, 75 min): --; VPA plasma levels ([8]; dog 4, 210 min): --; VPA plasma levels ([8]; dog 4, 660 min): --; VPA plasma levels ([8]; dog 4, 720 min): --; VPA plasma levels ([8]; dog 4, 780 min): --; VPA plasma levels ([8]; dog 4, 840 min): --; VPA plasma levels ([8]; dog 4, 900 min): --; VPA plasma levels ([8]; dog 5, 30 min): --; VPA plasma levels ([8]; dog 5, 660 min): --; VPA plasma levels ([8]; dog 5, 780 min): --; VPA plasma levels ([8]; dog 5, 840 min): --; VPA plasma levels ([8]; dog 5, 900 min): --

Which toxicity to animals (animals) does the source give for `CCCC(CCC)COC(=O)C(CCC)CCC` [2-propylpentanol-di-n-propyl acetate] here?
Its toxicity to animals is “very toxic to animals”.
